Each block holds one molecule with its values, some of them ahead of it. Activity calls are given as the source filed them.
What was measured:
Beta-galactosidase = Beta-galactosidase (Escherichia coli, UniProt Q8VNN2); test: detection-enzyme interference by beta-gal modulators – biochemical, E. coli enzyme, set 3, artefact control for CCR6 antagonist project, dose response (AID 504712); type: functional
H9c2 = test: cells; type: functional, cell-based; settings: Rattus norvegicus, H9c2, Myocardium;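 also: confirmatory concentration-response retest of ultra-high-throughput screening hits for modulation of myocardial damage; cell death induced by hydrogen peroxide oxidative stress; compound pretreatment for 60 min then peroxide exposure for 2 h; potency is for protecting the cells against peroxide damage rather than for killing them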
[1] = target: G-protein coupled receptor 55 (Homo sapiens, UniProt Q9Y2T6); test: selective activators of receptor GPR55 – imaging, U2OS cells, beta-arrestin-GFP redistribution, primary screen (AID 1961); type: functional
G-protein coupled receptor 55, sequence (Q9Y2T6 whole entry): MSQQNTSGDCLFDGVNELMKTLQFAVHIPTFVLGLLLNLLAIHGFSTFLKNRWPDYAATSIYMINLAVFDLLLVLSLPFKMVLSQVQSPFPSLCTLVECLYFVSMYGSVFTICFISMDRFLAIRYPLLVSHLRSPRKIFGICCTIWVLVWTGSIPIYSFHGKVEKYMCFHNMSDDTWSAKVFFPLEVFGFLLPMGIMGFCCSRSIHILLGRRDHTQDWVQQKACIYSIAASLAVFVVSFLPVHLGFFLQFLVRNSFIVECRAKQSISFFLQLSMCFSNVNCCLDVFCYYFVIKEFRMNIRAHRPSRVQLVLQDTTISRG

Prothrombin = Prothrombin (Homo sapiens, UniProt P00734); test: Thrombin 1536 HTS Dose Response Confirmation. [Related pubchem assays: 1046 (Thrombin 1536 HTS; hits were confirmed in this assay)]; type: functional
[2] = target: T1, Ubiquitin-conjugating enzyme E2 N (Homo sapiens, UniProt P61088); type: functional;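 also: Dose-response confirmation in a TR-FRET assay detecting UBC13-driven polyubiquitin chain formation, inhibition measured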
T1 sequence (P61088 whole entry): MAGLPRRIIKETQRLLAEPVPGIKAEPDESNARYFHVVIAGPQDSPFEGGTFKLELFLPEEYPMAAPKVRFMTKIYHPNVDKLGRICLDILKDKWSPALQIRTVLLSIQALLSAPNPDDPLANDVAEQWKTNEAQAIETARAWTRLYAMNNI

[3] = viability of uninfected HEp-2 cells – cell-based, HTS, cytotoxicity control for RSV inhibitor project, dose response (AID 2410); type: functional; settings: human respiratory syncytial virus
[4] = target: T2, Heat shock factor protein 1 (Mus musculus, UniProt P38532); test: enhancement of HSF1-driven luciferase signal – cell-based, NIH3T3, luminescence, dose retest, confirmation (AID 435004); type: functional;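 also: stress induced by proteasome inhibitor MG132 added 30 min after compound; luciferase reporter driven by HSF1 response element in NIH3T3 cells; actives raise luminescence as potentiators of the MG132 stress response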
T2 sequence (P38532 whole entry): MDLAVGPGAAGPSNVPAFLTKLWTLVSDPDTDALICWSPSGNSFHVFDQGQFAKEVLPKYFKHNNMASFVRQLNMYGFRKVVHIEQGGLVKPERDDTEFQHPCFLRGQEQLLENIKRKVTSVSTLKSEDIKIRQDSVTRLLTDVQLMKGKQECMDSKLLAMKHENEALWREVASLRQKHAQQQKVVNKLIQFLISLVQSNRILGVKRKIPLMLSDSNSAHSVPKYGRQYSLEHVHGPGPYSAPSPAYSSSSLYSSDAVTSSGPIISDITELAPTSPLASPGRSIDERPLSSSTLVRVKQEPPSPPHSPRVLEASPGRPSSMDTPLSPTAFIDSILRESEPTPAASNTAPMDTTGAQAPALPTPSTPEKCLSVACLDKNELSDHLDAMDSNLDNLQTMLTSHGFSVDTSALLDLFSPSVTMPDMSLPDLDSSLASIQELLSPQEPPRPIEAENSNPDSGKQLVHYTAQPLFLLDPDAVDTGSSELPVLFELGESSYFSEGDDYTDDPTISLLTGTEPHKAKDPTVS

[5] = viability loss in THP-1 monocytes – THP-1 cells, cytotoxicity control for Vif-APOBEC3G degradation inhibitor project, dose response (AID 1117359); type: functional; settings: THP-1
[6] = viability loss of HPDE-C7K cells – cell-based, fluorescence, HTS, primary screen (AID 431); type: functional; settings: Homo sapiens
[7] = HPDE-C7 pancreatic duct cell viability loss – fluorescence, HTS (AID 430); type: functional, cell-based; settings: Homo sapiens
Bcl-2-related protein A1 = target: T3, Bcl-2-related protein A1 (Mus musculus, UniProt Q07440); type: functional;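 also: confirmatory dose–response counterscreen on Bfl-1, used to check hits from a UBC13 polyubiquitin inhibitor campaign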
T3 sequence (Q07440 whole entry): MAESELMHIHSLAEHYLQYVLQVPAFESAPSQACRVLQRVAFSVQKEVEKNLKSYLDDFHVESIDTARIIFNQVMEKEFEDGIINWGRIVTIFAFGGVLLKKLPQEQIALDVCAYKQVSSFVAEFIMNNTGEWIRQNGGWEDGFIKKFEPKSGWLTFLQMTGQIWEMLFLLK

Beta-galactosidase, sequence (Q8VNN2 whole entry): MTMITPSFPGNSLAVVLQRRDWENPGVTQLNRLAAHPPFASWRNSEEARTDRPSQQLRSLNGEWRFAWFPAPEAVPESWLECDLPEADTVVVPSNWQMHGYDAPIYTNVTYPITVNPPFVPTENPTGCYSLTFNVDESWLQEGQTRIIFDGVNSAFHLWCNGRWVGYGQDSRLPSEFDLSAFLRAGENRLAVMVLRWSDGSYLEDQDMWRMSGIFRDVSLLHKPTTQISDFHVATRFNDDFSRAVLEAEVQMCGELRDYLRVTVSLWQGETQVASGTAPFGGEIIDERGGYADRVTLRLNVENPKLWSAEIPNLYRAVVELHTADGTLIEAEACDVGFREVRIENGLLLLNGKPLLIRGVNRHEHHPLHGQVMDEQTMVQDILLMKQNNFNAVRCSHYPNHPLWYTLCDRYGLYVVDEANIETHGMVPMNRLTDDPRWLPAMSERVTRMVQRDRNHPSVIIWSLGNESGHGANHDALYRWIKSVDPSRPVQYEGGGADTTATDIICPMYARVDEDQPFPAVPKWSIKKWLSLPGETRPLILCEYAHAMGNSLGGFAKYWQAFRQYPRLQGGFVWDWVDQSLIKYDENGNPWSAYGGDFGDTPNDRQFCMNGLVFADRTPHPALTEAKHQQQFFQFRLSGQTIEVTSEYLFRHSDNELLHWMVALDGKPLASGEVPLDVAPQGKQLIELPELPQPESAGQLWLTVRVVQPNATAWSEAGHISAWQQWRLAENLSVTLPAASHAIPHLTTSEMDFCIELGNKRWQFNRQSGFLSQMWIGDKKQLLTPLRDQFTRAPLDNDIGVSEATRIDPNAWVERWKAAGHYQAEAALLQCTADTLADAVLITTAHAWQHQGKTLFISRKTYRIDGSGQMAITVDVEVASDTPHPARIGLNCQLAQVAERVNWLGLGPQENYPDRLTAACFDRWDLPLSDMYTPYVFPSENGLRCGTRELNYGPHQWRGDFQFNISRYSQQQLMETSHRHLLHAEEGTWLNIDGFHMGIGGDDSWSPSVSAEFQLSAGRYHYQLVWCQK

SMILES: COc1cccc(-c2nnc(NC(=O)c3ccc(Cl)s3)o2)c1
- IC50 (Beta-galactosidase): > 66.6 µM (inactive)
- IC50 (H9c2): > 79 µM (inactive)

SMILES: Cc1nc(SCc2ccc(F)cc2)c2oc3ccccc3c2n1
- EC50 [1]: > 32 µM (inactive)

SMILES: COc1ccccc1NC(=O)Nc1nc(C(C)(C)C)cs1
- IC50 [2]: > 20 µM (inactive)
- IC50 (cells): 30.3 µM (active)
- CC50 [3]: > 50 µM (active)

SMILES: OC1(c2ccc(F)cc2)CCN(Cc2nnnn2Cc2cccs2)CC1
- IC50 (Prothrombin): > 50 µM (not active)

SMILES: O=C(Nc1cc(S(=O)(=O)N2CCOCC2)ccc1N1CCOCC1)c1cc2c(s1)CCC2
- EC50 [1]: 6.36 µM (active)

SMILES: COc1ccc(C(=O)CSc2cc(C)nc3nc(C)nn23)cc1OC
- EC50 [6]: > 20 µM (not active)
- EC50 [7]: > 20 µM (not active)

Now from value to molecule, other results behind:

- IC50 (Beta-galactosidase): > 66.6 µM (inactive)
SMILES: CCN(CC)CCn1c(NC(=O)c2ccccc2O)nc2ccccc21

- IC50 (Prothrombin): 13.8 µM (active)
SMILES: CCCCOC(=O)n1ccc(C(=O)Nc2ccccc2OC)n1

- EC50 [1]: 7.88 µM (active)
SMILES: CCN(CC)S(=O)(=O)c1ccc2c(c1)nc(CCC(=O)Nc1cccc(C(F)(F)F)c1)n2CC

- EC50 [4]: 63.7 µM (active)
SMILES: CCOC(=O)c1sc2nc(CC(=O)OC)nc(NCc3ccco3)c2c1C
- CC50 [5]: 32.7 µM (active)

- IC50 [2]: 17.5 µM (active)
- IC50 (Bcl-2-related protein A1): > 20 µM (inactive)
SMILES: O=C(CSc1nc2ccsc2c(=O)n1Cc1ccc(C(=O)O)cc1)NCC1CCCO1 (configuration not stated)

Reference: ChEMBL document CHEMBL1201862, “PubChem BioAssay data set” (2004)
